Here are results for 25 compounds from patent US20240025884A1 (Dong-A ST Co., Ltd., priority 2022, published 2024).

Molecules are shown by their SMILES.

The target in the experiment is GCN2 (Homo sapiens (Human), UniProt Q9P2K8). The experiment is described as follows: GCN2 Biochemical Assay (TR-FRET, GFP-eIF2S1 substrate phosphorylation). As to conditions: read-out: IC50 (GCN2 Inhibitory Activity). In short, it runs like this: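 In-house GCN2 (1.6 nM 2× stock) phosphorylates GFP-eIF2S1 (50 nM 2× stock) with ATP (0.2 mM 2× stock) and tRNA, pH 7.5, 70 min at room temperature; 10-point 3.16-fold compound series. TR-FRET detection with Tb-anti-phospho antibody, 2–3 h, Ex 340/Em 490/520 nm; artifact plate spiked with phospho-substrate.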
GCN2, sequence (Q9P2K8 whole entry): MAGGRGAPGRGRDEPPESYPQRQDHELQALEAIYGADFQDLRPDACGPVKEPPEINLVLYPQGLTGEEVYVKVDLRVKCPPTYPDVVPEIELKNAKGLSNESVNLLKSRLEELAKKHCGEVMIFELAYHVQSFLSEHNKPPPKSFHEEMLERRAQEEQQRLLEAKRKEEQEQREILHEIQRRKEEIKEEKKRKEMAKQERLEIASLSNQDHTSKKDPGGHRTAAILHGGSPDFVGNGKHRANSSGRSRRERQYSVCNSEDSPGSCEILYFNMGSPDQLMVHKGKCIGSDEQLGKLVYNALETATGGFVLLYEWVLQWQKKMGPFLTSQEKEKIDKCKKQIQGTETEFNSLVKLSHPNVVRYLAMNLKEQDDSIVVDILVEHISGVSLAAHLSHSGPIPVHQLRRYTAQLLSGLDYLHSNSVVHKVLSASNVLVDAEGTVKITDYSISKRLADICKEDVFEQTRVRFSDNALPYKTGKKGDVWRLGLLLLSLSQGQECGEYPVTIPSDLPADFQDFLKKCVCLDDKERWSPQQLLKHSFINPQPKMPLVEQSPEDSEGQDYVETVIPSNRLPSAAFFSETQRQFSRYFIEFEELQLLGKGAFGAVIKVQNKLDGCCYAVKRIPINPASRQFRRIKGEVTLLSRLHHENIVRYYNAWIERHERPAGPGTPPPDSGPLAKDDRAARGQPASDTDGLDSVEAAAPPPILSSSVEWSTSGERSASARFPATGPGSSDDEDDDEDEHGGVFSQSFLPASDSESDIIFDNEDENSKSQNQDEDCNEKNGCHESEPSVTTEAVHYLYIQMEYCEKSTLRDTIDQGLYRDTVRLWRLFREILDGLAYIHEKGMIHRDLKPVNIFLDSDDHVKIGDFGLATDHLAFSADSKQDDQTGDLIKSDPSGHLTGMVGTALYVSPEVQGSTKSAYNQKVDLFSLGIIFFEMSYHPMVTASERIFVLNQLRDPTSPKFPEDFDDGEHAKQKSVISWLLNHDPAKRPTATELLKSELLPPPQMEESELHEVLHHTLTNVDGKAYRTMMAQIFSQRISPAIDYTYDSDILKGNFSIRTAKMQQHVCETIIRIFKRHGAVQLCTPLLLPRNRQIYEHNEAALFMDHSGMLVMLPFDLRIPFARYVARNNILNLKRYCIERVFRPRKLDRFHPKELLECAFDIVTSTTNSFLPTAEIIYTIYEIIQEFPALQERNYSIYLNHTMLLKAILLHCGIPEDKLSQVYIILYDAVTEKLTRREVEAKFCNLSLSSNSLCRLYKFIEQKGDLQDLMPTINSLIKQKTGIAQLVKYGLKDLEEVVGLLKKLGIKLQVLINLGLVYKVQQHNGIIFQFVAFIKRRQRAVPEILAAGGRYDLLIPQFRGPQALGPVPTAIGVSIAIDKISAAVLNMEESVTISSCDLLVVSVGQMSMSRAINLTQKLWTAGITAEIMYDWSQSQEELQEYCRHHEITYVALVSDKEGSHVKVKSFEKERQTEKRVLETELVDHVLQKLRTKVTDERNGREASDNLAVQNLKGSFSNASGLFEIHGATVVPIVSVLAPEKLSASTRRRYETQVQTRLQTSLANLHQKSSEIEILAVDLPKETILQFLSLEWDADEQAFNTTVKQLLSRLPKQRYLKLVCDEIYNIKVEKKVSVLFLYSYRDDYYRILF
(In general: Time-resolved FRET reads energy transfer from a long-lived donor to a nearby acceptor.)
For the compound `Cc1cnc(Nc2cc(C)n(C)n2)nc1-c1c[nH]c2c(NC(=O)CN3CC[C@H](Oc4cnc(-c5ccccc5)nc4)C3)cccc12` (stereo in doubt) [Example 257, N-(3-(2-((1,5-dimethyl-1H-pyrazol-3-yl)amino)-5-methylpyrimidin-4-yl)-1H-indol-7-yl)-2-(3-((2-phenylpyrimidin-5-yl)oxy)pyrrolidin-1-yl)acetamide], the IC50 (as a rule, the point on the concentration scale where inhibition reaches its midpoint) fell in the range of 100 to 1000 nM.

Consider `Cc1cnc(Nc2cc(C)n(C)n2)nc1-c1c[nH]c2c(NC(=O)CN3CC[C@H](Oc4ccnc(NCCN(C)C)n4)C3)cccc12` [Example 217, (S)-N-(3-(2-((1,5-dimethyl-1H-pyrazol-3-yl)amino)-5-methylpyrimidin-4-yl)-1H-indol-7-yl)-2-(3-((2-((2-(dimethylamino)ethyl)amino)pyrimidin-4-yl)oxy)pyrrolidin-1-yl)acetamide], for which the IC50 is under 10 nM.

For the compound `Cc1cnc(Nc2cc(C)n(C)n2)nc1-c1c[nH]c2c(NC(=O)CN3CC[C@H](Oc4ncnc(Cl)c4C)C3)cccc12` [Example 94, (S)-2-(3-((6-chloro-5-methylpyrimidin-4-yl)oxy)pyrrolidin-1-yl)-N-(3-(2-((1,5-dimethyl-1H-pyrazol-3-yl)amino)-5-methylpyrimidin-4-yl)-1H-indol-7-yl)acetamide], the concentration for half-maximal inhibition (IC50) lay in the range of 10 to 100 nM.

As for `Cc1cnc(Nc2cc(C)n(C)n2)nc1-c1c[nH]c2c(NC(=O)CN3CC[C@H](Oc4cc(N5CCC(O)CC5)ncn4)C3)cccc12` [Example 163, (S)-N-(3-(2-((1,5-dimethyl-1H-pyrazol-3-yl)amino)-5-methylpyrimidin-4-yl)-1H-indol-7-yl)-2-(3-((6-(4-hydroxypiperidin-1-yl)pyrimidin-4-yl)oxy)pyrrolidin-1-yl)acetamide], the IC50 is under 10 nM.

On to `Cc1cnc(Nc2cc(C)n(C)n2)nc1-c1c[nH]c2c(N3Cc4c(cccc4-c4cn[nH]c4)C3=O)cccc12` [Example 390, 2-(3-(2-((1,5-dimethyl-1H-pyrazol-3-yl)amino)-5-methylpyrimidin-4-yl)-1H-indol-7-yl)-4-(1H-pyrazol-4-yl)isoindolin-1-one], for which the IC50 is under 10 nM.

On to `Cc1cnc(Nc2cc(C)n(C)n2)nc1-c1c[nH]c2c(NC(=O)CN3CC[C@H](Oc4cc(N5CCCCC5)ncn4)C3)cccc12` [Example 162, (S)-N-(3-(2-((1,5-dimethyl-1H-pyrazol-3-yl)amino)-5-methylpyrimidin-4-yl)-1H-indol-7-yl)-2-(3-((6-(piperidin-1-yl)pyrimidin-4-yl)oxy)pyrrolidin-1-yl)acetamide], for which the IC50 is under 10 nM.

On to `Cc1cnc(Nc2cc(C)n(C)n2)nc1-c1c[nH]c2c(NC(=O)CN3CC[C@H](Oc4ccc(F)c(N)c4)C3)cccc12` [Example 87, (S)-2-(3-(3-amino-4-fluorophenoxy)pyrrolidin-1-yl)-N-(3-(2-((1,5-dimethyl-1H-pyrazol-3-yl)amino)-5-methylpyrimidin-4-yl)-1H-indol-7-yl)acetamide], for which the IC50 was 10 to 100 nM.

In the case of `Cc1cnc(Nc2cc(C)n(C)n2)nc1-c1c[nH]c2c(NC(=O)CN3CC[C@H](Oc4cncc(NCCO)n4)C3)cccc12` [Example 246, (S)-N-(3-(2-((1,5-dimethyl-1H-pyrazol-3-yl)amino)-5-methylpyrimidin-4-yl)-1H-indol-7-yl)-2-(3-((6-((2-hydroxyethyl)amino)pyrazin-2-yl)oxy)pyrrolidin-1-yl)acetamide], the IC50 lay within 10 to 100 nM.

`Cc1cnc(Nc2cc(C)n(C)n2)nc1-c1c[nH]c2c(NC(=O)CN3CC[C@H](Oc4ccnc(N(C)Cc5ccccc5)n4)C3)cccc12` [Example 221, (S)-2-(3-((2-(benzyl(methyl)amino)pyrimidin-4-yl)oxy)pyrrolidin-1-yl)-N-(3-(2-((1,5-dimethyl-1H-pyrazol-3-yl)amino)-5-methylpyrimidin-4-yl)-1H-indol-7-yl)acetamide]: the IC50 fell in the range of 100 to 1000 nM.

For the compound `Cc1cnc(Nc2cc(C)n(C)n2)nc1-c1c[nH]c2c(N3Cc4c(/C=C/C(=O)N(C)C)ccc(F)c4C3=O)cccc12` [Example 359, (E)-3-(2-(3-(2-((1,5-dimethyl-1H-pyrazol-3-yl)amino)-5-methylpyrimidin-4-yl)-1H-indol-7-yl)-7-fluoro-1-oxoisoindolin-4-yl)-N,N-dimethylacrylamide], the IC50 was 10 to 100 nM.

In the case of `Cc1cnc(Nc2cc(C)n(C)n2)nc1-c1c[nH]c2c(NC(=O)CN3CC[C@H](Oc4ncc(F)c(N)n4)C3)cccc12` [Example 176, (S)-2-(3-((4-amino-5-fluoropyrimidin-2-yl)oxy)pyrrolidin-1-yl)-N-(3-(2-((1,5-dimethyl-1H-pyrazol-3-yl)amino)-5-methylpyrimidin-4-yl)-1H-indol-7-yl)acetamide], the concentration for half-maximal inhibition (IC50) was 10 to 100 nM.

On to `Cc1cnc(Nc2cc(C)n(C)n2)nc1-c1c[nH]c2c(N3Cc4c(cccc4N4CCOCC4)C3=O)cccc12` [Example 352, 2-(3-(2-((1,5-dimethyl-1H-pyrazol-3-yl)amino)-5-methylpyrimidin-4-yl)-1H-indol-7-yl)-4-morpholinoisoindolin-1-one], for which the IC50 is under 10 nM.

As for `Cc1cnc(Nc2cc(C)n(C)n2)nc1-c1c[nH]c2c(NC(=O)CN3CC[C@H](Oc4cccc(N)c4)C3)cccc12` [Example 89], the IC50 lay within 100 to 1000 nM.

On to `Cc1cnc(Nc2cc(C)n(C)n2)nc1-c1c[nH]c2c(N3Cc4c(ccnc4-c4cncc(F)c4)C3=O)cccc12` [Example 503, 2-(3-(2-((1,5-dimethyl-1H-pyrazol-3-yl)amino)-5-methylpyrimidin-4-yl)-1H-indol-7-yl)-4-(5-fluoropyridin-3-yl)-2,3-dihydro-1H-pyrrolo[3,4-c]pyridin-1-one], for which the IC50 is under 10 nM.

Take `Cc1cnc(Nc2cc(C)n(C)n2)nc1-c1c[nH]c2c(N3Cc4c(-c5cncc(F)c5)ccc(F)c4C3=O)cccc12` [Example 484, 2-(3-(2-((1,5-dimethyl-1H-pyrazol-3-yl)amino)-5-methylpyrimidin-4-yl)-1H-indol-7-yl)-7-fluoro-4-(5-fluoropyridin-3-yl)isoindolin-1-one]: the half-maximal inhibitory concentration (IC50) is under 10 nM.

In the case of `Cc1ccc(-c2cccc3c2CN(c2cccc4c(-c5nc(Nc6cc(C)n(C)n6)ncc5C)c[nH]c24)C3=O)s1` [Example 451, 2-(3-(2-((1,5-dimethyl-1H-pyrazol-3-yl)amino)-5-methylpyrimidin-4-yl)-1H-indol-7-yl)-4-(5-methylthiophen-2-yl)isoindolin-1-one], the IC50 was 10 to 100 nM.

Turning to `Cc1cnc(Nc2cc(C)n(C)n2)nc1-c1c[nH]c2c(NC(=O)CN3CC[C@H](Oc4cc(NC5CC5)ncn4)C3)cccc12` [Example 151, (S)-2-(3-((6-(cyclopropylamino)pyrimidin-4-yl)oxy)pyrrolidin-1-yl)-N-(3-(2-((1,5-dimethyl-1H-pyrazol-3-yl)amino)-5-methylpyrimidin-4-yl)-1H-indol-7-yl)acetamide], the IC50 was under 10 nM.

For the compound `Cc1cnc(Nc2cc(C)n(C)n2)nc1-c1c[nH]c2c(NC(=O)CN3CC[C@H](Oc4ccn(C)n4)C3)cccc12` [Example 105, (S)-N-(3-(2-((1,5-dimethyl-1H-pyrazol-3-yl)amino)-5-methylpyrimidin-4-yl)-1H-indol-7-yl)-2-(3-((1-methyl-1H-pyrazol-3-yl)oxy)pyrrolidin-1-yl)acetamide], the IC50 was under 10 nM.

Turning to `Cc1cnc(Nc2cc(C)n(C)n2)nc1-c1c[nH]c2c(N3Cc4c(cccc4-c4ccc5c(cnn5C)c4)C3=O)cccc12` [Example 449, 2-(3-(2-((1,5-dimethyl-1H-pyrazol-3-yl)amino)-5-methylpyrimidin-4-yl)-1H-indol-7-yl)-4-(i-methyl-1H-indazol-5-yl)isoindolin-1-one], the 50% inhibitory concentration (IC50) is 10 to 100 nM.

Consider `Cc1cnc(Nc2cc(C)n(C)n2)nc1-c1c[nH]c2c(NC(=O)CN3C[C@@H](Oc4ccnc(NC5CC5)n4)C[C@H]3C(N)=O)cccc12` [Example 58, (2S,4S)-4-((2-(cyclopropylamino)pyrimidin-4-yl)oxy)-1-(2-((3-(2-((1,5-dimethyl-1H-pyrazol-3-yl)amino)-5-methylpyrimidin-4-yl)-1H-indol-7-yl)amino)-2-oxoethyl)pyrrolidine-2-carboxamide], for which the IC50 was under 10 nM.

In the case of `Cc1cnc(Nc2cc(C)n(C)n2)nc1-c1c[nH]c2c(NC(=O)CN3CC(O)C3)cccc12` [Example 26, N-(3-(2-((1,5-dimethyl-1H-pyrazol-3-yl)amino)-5-methylpyrimidin-4-yl)-1H-indol-7-yl)-2-(3-hydroxyazetidin-1-yl)acetamide], the IC50 fell in the range of 10 to 100 nM.

With `CC(=O)Nc1nccc(O[C@H]2CCN(CC(=O)Nc3cccc4c(-c5nc(Nc6cc(C)n(C)n6)ncc5C)c[nH]c34)C2)n1` [Example 196, (S)-2-(3-((2-acetamidopyrimidin-4-yl)oxy)pyrrolidin-1-yl)-N-(3-(2-((1,5-dimethyl-1H-pyrazol-3-yl)amino)-5-methylpyrimidin-4-yl)-1H-indol-7-yl)acetamide], the IC50 was under 10 nM.

As for `Cc1cnc(Nc2cc(C)n(C)n2)nc1-c1c[nH]c2c(N3Cc4cccc(F)c4C3=O)cccc12` [Example 282, 2-(3-(2-((1,5-dimethyl-1H-pyrazol-3-yl)amino)-5-methylpyrimidin-4-yl)-1H-indol-7-yl)-7-fluoroisoindolin-1-one], the concentration for half-maximal inhibition (IC50) was under 10 nM.

For the compound `CNC(=O)c1ccnc(O[C@H]2CCN(CC(=O)Nc3cccc4c(-c5nc(Nc6cc(C)n(C)n6)ncc5C)c[nH]c34)C2)n1` [Example 130, (S)-2-((1-(2-((3-(2-((1,5-dimethyl-1H-pyrazol-3-yl)amino)-5-methylpyrimidin-4-yl)-1H-indol-7-yl)amino)-2-oxoethyl)pyrrolidin-3-yl)oxy)-N-methylpyrimidine-4-carboxamide], the concentration for half-maximal inhibition (IC50) was 10 to 100 nM.

On to `Cc1cnc(Nc2cc(C)n(C)n2)nc1-c1c[nH]c2c(NC(=O)CN3CC[C@H](Oc4nc(NC5CC5)ncc4F)C3)cccc12` [Example 227, (S)-2-(3-((2-(cyclopropylamino)-5-fluoropyrimidin-4-yl)oxy)pyrrolidin-1-yl)-N-(3-(2-((1,5-dimethyl-1H-pyrazol-3-yl)amino)-5-methylpyrimidin-4-yl)-1H-indol-7-yl)acetamide], for which the IC50 was under 10 nM.
